Test results from the NIST ThermoML archive (doi:10.1016/j.tca.2007.03.018).

Experiments:
[1] = for molar entropy: 101.33 kPa; for vapor or sublimation pressure: Knudsen effusion
[2] = molar heat capacity at constant pressure; conditions: 101.33 kPa
[3] = Molar enthalpy of transition or fusion

C1C2CC3CC1CC(C14CC5CC(CC(C5)C1)C4)(C2)C3 [1,1'-biadamantane]
Conditions | molar entropy, [1] [J/K/mol] | molar heat capacity at constant pressure, [2] [J/K/mol] | vapor or sublimation pressure, [1] [kPa]
5 K, Crystal 3, Small (less than 1 g) adiabatic calorimetry | 0.123 | 0.4412 | –
10 K, Crystal 3, Small (less than 1 g) adiabatic calorimetry | 1.008 | 3.035 | –
20 K, Crystal 3, Small (less than 1 g) adiabatic calorimetry | 6.713 | 16 | –
30 K, Crystal 3, Small (less than 1 g) adiabatic calorimetry | 16.03 | 30.58 | –
40 K, Crystal 3, Small (less than 1 g) adiabatic calorimetry | 26.5 | 42.31 | –
50 K, Crystal 3, Small (less than 1 g) adiabatic calorimetry | 37.01 | 52.05 | –
60 K, Crystal 3, Small (less than 1 g) adiabatic calorimetry | 47.28 | 60.95 | –
70 K, Crystal 3, Small (less than 1 g) adiabatic calorimetry | 57.32 | 69.55 | –
80 K, Crystal 3, Small (less than 1 g) adiabatic calorimetry | 67.2 | 78.54 | –
90 K, Crystal 3, Small (less than 1 g) adiabatic calorimetry | 76.98 | 87.69 | –
100 K, Crystal 3, Small (less than 1 g) adiabatic calorimetry | 86.7 | 97.04 | –
110 K, Crystal 3, Small (less than 1 g) adiabatic calorimetry | 96.4 | 106.6 | –
120 K, Crystal 3, Small (less than 1 g) adiabatic calorimetry | 106.1 | 116.4 | –
130 K, Crystal 3, Small (less than 1 g) adiabatic calorimetry | 115.8 | 126.3 | –
140 K, Crystal 3, Small (less than 1 g) adiabatic calorimetry | 125.5 | 136.4 | –
150 K, Crystal 3, Small (less than 1 g) adiabatic calorimetry | 135.2 | 146.7 | –
160 K, Crystal 3, Small (less than 1 g) adiabatic calorimetry | 145.1 | 157.3 | –
170 K, Crystal 3, Small (less than 1 g) adiabatic calorimetry | 155 | 168.2 | –
180 K, Crystal 3, Small (less than 1 g) adiabatic calorimetry | 164.9 | 179.3 | –
190 K, Crystal 3, Small (less than 1 g) adiabatic calorimetry | 174.9 | 190.7 | –
200 K, Crystal 3, Small (less than 1 g) adiabatic calorimetry | 184.9 | 202.7 | –
210 K, Crystal 3, Small (less than 1 g) adiabatic calorimetry | 195.1 | 214.7 | –
220 K, Crystal 3, Small (less than 1 g) adiabatic calorimetry | 205.4 | 227.1 | –
230 K, Crystal 3, Small (less than 1 g) adiabatic calorimetry | 215.8 | 240 | –
240 K, Crystal 3, Small (less than 1 g) adiabatic calorimetry | 226.3 | 253.4 | –
250 K, Crystal 3, Small (less than 1 g) adiabatic calorimetry | 237 | 267.7 | –
260 K, Crystal 3, Small (less than 1 g) adiabatic calorimetry | 247.6 | 281.1 | –
270 K, Crystal 3, Small (less than 1 g) adiabatic calorimetry | 258.5 | 295.3 | –
273.15 K, Crystal 3, Small (less than 1 g) adiabatic calorimetry | 262.1 | 299.8 | –
280 K, Crystal 3, Small (less than 1 g) adiabatic calorimetry | 269.5 | 309.6 | –
290 K, Crystal 3, Small (less than 1 g) adiabatic calorimetry | 280.6 | 324 | –
298.15 K, Crystal 3, Small (less than 1 g) adiabatic calorimetry | 289.9 | 335.3 | –
300 K, Crystal 3, Small (less than 1 g) adiabatic calorimetry | 291.9 | 338 | –
310 K, Crystal 3, Small (less than 1 g) adiabatic calorimetry | 303.2 | 352.8 | –
320 K, Crystal 3, Small (less than 1 g) adiabatic calorimetry | 314.6 | 366.5 | –
330 K, Crystal 3, Small (less than 1 g) adiabatic calorimetry | 326.1 | 378.2 | –
336.3 K, Crystal 2, Small (less than 1 g) adiabatic calorimetry | 336.8 | 385 | –
336.3 K, Crystal 3, Small (less than 1 g) adiabatic calorimetry | 333.4 | 385 | –
340 K, Crystal 2, Small (less than 1 g) adiabatic calorimetry | 340 | 389 | –
350 K, Crystal 2, Small (less than 1 g) adiabatic calorimetry | 352.4 | 400 | –
360 K, Crystal 2, Small (less than 1 g) adiabatic calorimetry | 362.8 | 412 | –
370 K, Crystal 2, Small (less than 1 g) adiabatic calorimetry | 374.3 | 424 | –
380 K, Crystal 2, Large sample (1 g) DSC | 385.8 | 437 | –
390 K, Crystal 2, Large sample (1 g) DSC | 397.3 | 450 | –
392.77 K, Crystal 2 | – | – | 0.0005447
398 K, Crystal 2 | – | – | 0.0008576
400 K, Crystal 2, Large sample (1 g) DSC | 408.8 | 463 | –
402.91 K, Crystal 2 | – | – | 0.001308
407.9 K, Crystal 2 | – | – | 0.001881
410 K, Crystal 2, Large sample (1 g) DSC | 420.4 | 477 | –
412.88 K, Crystal 2 | – | – | 0.002772
417.8 K, Crystal 2, Large sample (1 g) DSC | 429.5 | 487 | –
420 K, Crystal 2, Large sample (1 g) DSC | 432.1 | 491 | –
422.86 K, Crystal 2 | – | – | 0.006026
427.75 K, Crystal 2 | – | – | 0.00828
430 K, Crystal 2, Large sample (1 g) DSC | 444 | 505 | –
432.81 K, Crystal 2 | – | – | 0.01195
437.82 K, Crystal 2 | – | – | 0.01674
440 K, Crystal 2, Large sample (1 g) DSC | 456 | 520 | –
442.66 K, Crystal 2 | – | – | 0.02466
450 K, Crystal 2, Large sample (1 g) DSC | 467 | 535 | –
460 K, Crystal 2, Large sample (1 g) DSC | 479 | 551 | –
470 K, Crystal 2, Large sample (1 g) DSC | 491 | 567 | –
480 K, Crystal 2, Large sample (1 g) DSC | 503 | 582 | –
490 K, Crystal 2, Large sample (1 g) DSC | 516 | 598 | –
500 K, Crystal 2, Large sample (1 g) DSC | 528 | 614 | –
509.6 K, Crystal 1, Large sample (1 g) DSC | 542 | 629 | –
509.6 K, Crystal 2, Large sample (1 g) DSC | 540 | 629 | –
510 K, Crystal 1, Large sample (1 g) DSC | 543 | 630 | –
520 K, Crystal 1, Large sample (1 g) DSC | 555 | 646 | –
530 K, Crystal 1, Large sample (1 g) DSC | 568 | 662 | –
535 K, Crystal 1, Large sample (1 g) DSC | 574 | 669 | –
540 K, Crystal 1, Large sample (1 g) DSC | 580 | 677 | –
545 K, Crystal 1, Large sample (1 g) DSC | 586 | 685 | –
550 K, Crystal 1, Large sample (1 g) DSC | 593 | 693 | –
555 K, Crystal 1, Large sample (1 g) DSC | 599 | 701 | –
560 K, Crystal 1, Large sample (1 g) DSC | 605 | 709 | –

Conditions | Molar enthalpy of transition or fusion, Crystal 1, DSC [kcal/mol] | Molar enthalpy of transition or fusion, Crystal 2, DSC [kcal/mol] | Molar enthalpy of transition or fusion, Crystal 3, Adiabatic calorimetry [kcal/mol] | Triple point temperature, Crystal 1, DTA [K] | Triple point temperature, Crystal 2, DTA [K] | Triple point temperature, Crystal 3 [K]
[1] | – | – | – | 561 | 509.6 | 336.3
[3] | 16.7 | 0.311 | 0.276 | – | – | –
